Test system: KRAS patient-derived spheroids with HUVEC/MSC, viability
Assay: Anticancer human tumor 323965-272-R-J2-PDC patient-derived pancreatic carcinoma cell line growth inhibition [KRAS2]
Conditions: for IC50: curve of first compound; for viability, T/C: stronger effect = lower value
In short: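 Combination screen of spheroid viability in tumor-cell co-cultures with endothelial (HUVEC) and mesenchymal stem cell stroma. Each agent was tested in half-log dilutions, topping at clinical Cmax or at 10 microM without a known Cmax.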

[1] = second compound 0.1 µM, first compound 0.000316 µM
[2] = second compound 0.1 µM, first compound 0.001 µM
[3] = second compound 0.1 µM, first compound 0.00316 µM
[4] = second compound 0.1 µM, first compound 0.01 µM
[5] = second compound 0.1 µM, first compound 0.0316 µM
[6] = second compound 0.316 µM, first compound 0.000316 µM
[7] = second compound 0.316 µM, first compound 0.001 µM
[8] = second compound 0.316 µM, first compound 0.00316 µM
[9] = second compound 0.316 µM, first compound 0.01 µM
[10] = second compound 0.316 µM, first compound 0.0316 µM
[11] = second compound 1 µM, first compound 0.000316 µM
[12] = second compound 1 µM, first compound 0.001 µM
[13] = second compound 1 µM, first compound 0.00316 µM
[14] = second compound 1 µM, first compound 0.01 µM
[15] = second compound 1 µM, first compound 0.0316 µM
[16] = second compound 3.16 µM, first compound 0.000316 µM
[17] = second compound 3.16 µM, first compound 0.001 µM
[18] = second compound 3.16 µM, first compound 0.00316 µM
[19] = second compound 3.16 µM, first compound 0.01 µM
[20] = second compound 3.16 µM, first compound 0.0316 µM
[21] = second compound 10 µM, first compound 0.000316 µM
[22] = second compound 10 µM, first compound 0.001 µM
[23] = second compound 10 µM, first compound 0.00316 µM
[24] = second compound 10 µM, first compound 0.01 µM
[25] = second compound 10 µM, first compound 0.0316 µM
[26] = second compound 0.1 µM, first compound 0.1 µM
[27] = second compound 0.316 µM, first compound 0.1 µM
[28] = second compound 1 µM, first compound 0.1 µM
[29] = second compound 3.16 µM, first compound 0.1 µM
[30] = second compound 10 µM, first compound 0.1 µM
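Further: spheroids exposed to agents for 7 days.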
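Wherever viability, T/C is given: 100% = DMSO vehicle control viability.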

Compound | IC50 (second compound 0.1 µM) | IC50 (second compound 0.316 µM) | IC50 (second compound 1 µM) | IC50 (second compound 3.16 µM) | IC50 (second compound 10 µM) | viability, T/C [1] | viability, T/C [2] | viability, T/C [3] | viability, T/C [4] | viability, T/C [5] | viability, T/C [6] | viability, T/C [7] | viability, T/C [9] | viability, T/C [10] | viability, T/C [14] | viability, T/C [15] | viability, T/C [19] | viability, T/C [20] | viability, T/C [24] | viability, T/C [25] | also measured
CC(=O)Nc1cccc(-n2c(=O)n(C3CC3)c(=O)c3c(Nc4ccc(I)cc4F)n(C)c(=O)c(C)c32)c1 + CNCc1ccccc1-c1csc(C(C)Nc2nc(C)nc3cc(OC)c(OC)cc23)c1 | 3.71 nM | 2.91 nM | 4.97 nM | 8.68 nM | < 0.1 nM | 83.9% | 60.7% | 52.4% | 41.2% | 27.7% | 68.7% | 62.7% | 38.7% | 24.8% | 44% | 21.3% | 48.4% | 28.8% | 0.19% | 1.14% | viability, T/C (second compound 0.1 µM, first compound 0.0001 µM): 88%; viability, T/C (second compound 0.316 µM, first compound 0.0001 µM): 85.3%; viability, T/C [8]: 49%; viability, T/C (second compound 1 µM, first compound 0.0001 µM): 89.8%; viability, T/C [11]: 81.6%; viability, T/C [12]: 67.7%; viability, T/C [13]: 55.5%; viability, T/C (second compound 3.16 µM, first compound 0.0001 µM): 95.6%; viability, T/C [16]: 88.4%; viability, T/C [17]: 77.6%; viability, T/C [18]: 64.3%; viability, T/C (second compound 10 µM, first compound 0.0001 µM): 7.63%; viability, T/C [21]: 0.79%; viability, T/C [22]: 6.13%; viability, T/C [23]: 0.2%
CC(=O)OC12COC1CC(O)C1(C)C(=O)C(O)C3=C(C)C(OC(=O)C(O)C(NC(=O)OC(C)(C)C)c4ccccc4)CC(O)(C(OC(=O)c4ccccc4)C21)C3(C)C (stereo not given) + CNCc1ccccc1-c1csc(C(C)Nc2nc(C)nc3cc(OC)c(OC)cc23)c1 | < 10 nM | < 10 nM | < 10 nM | < 10 nM | < 10 nM |  |  |  | 29% | 25.5% |  |  | 23.3% | 24.3% | 27.5% | 25.7% | 0.95% | 26.9% | 0.72% | 0.14% | viability, T/C [26]: 24.1%; viability, T/C (second compound 0.1 µM, first compound 0.316 µM): 25.7%; viability, T/C (second compound 0.1 µM, first compound 1 µM): 26.5%; viability, T/C (second compound 0.1 µM, first compound 3.16 µM): 28.6%; viability, T/C [27]: 21.9%; viability, T/C (second compound 0.316 µM, first compound 0.316 µM): 21.8%; viability, T/C (second compound 0.316 µM, first compound 1 µM): 23%; viability, T/C (second compound 0.316 µM, first compound 3.16 µM): 25.7%; viability, T/C [28]: 28.4%; viability, T/C (second compound 1 µM, first compound 0.316 µM): 28.2%; viability, T/C (second compound 1 µM, first compound 1 µM): 32.7%; viability, T/C (second compound 1 µM, first compound 3.16 µM): 35.3%; viability, T/C [29]: 4.54%; viability, T/C (second compound 3.16 µM, first compound 0.316 µM): 0.8%; viability, T/C (second compound 3.16 µM, first compound 1 µM): 7.93%; viability, T/C (second compound 3.16 µM, first compound 3.16 µM): 30.4%; viability, T/C [30]: 0.36%; viability, T/C (second compound 10 µM, first compound 0.316 µM): 0.45%; viability, T/C (second compound 10 µM, first compound 1 µM): 0.41%; viability, T/C (second compound 10 µM, first compound 3.16 µM): 0.21%
CN(C)C/C=C/C(=O)Nc1cc2c(Nc3ccc(F)c(Cl)c3)ncnc2cc1O[C@H]1CCOC1 + CNCc1ccccc1-c1csc(C(C)Nc2nc(C)nc3cc(OC)c(OC)cc23)c1 | > 100 nM | > 100 nM | > 100 nM | > 100 nM | < 0.316 nM | 91.6% | 80.5% | 94.3% | 70.6% | 59.6% | 83.8% | 82.1% | 64.2% | 59.2% | 60.6% | 63.3% | 79.6% | 47.2% | 0.21% | 0.2% | viability, T/C [26]: 62.7%; viability, T/C [8]: 74.3%; viability, T/C [27]: 57.8%; viability, T/C [11]: 82.3%; viability, T/C [12]: 81.4%; viability, T/C [13]: 75.2%; viability, T/C [28]: 65.1%; viability, T/C [16]: 73.8%; viability, T/C [17]: 63.7%; viability, T/C [18]: 79.1%; viability, T/C [29]: 71.9%; viability, T/C [21]: 0.21%; viability, T/C [22]: 0.21%; viability, T/C [23]: 1.04%; viability, T/C [30]: 0.78%
